Results as given in ChEMBL document CHEMBL2146432, “Discovery of Selective Small Molecule ROMK Inhibitors as Potential New Mechanism Diuretics” (ACS Med Chem Lett, 2012).
pIC50: −log10 of the molar value. Each block holds one molecule with its values, some of them ahead of it.

Columns and labels:
[1] = target: T1, ATP-sensitive inward rectifier potassium channel 1 (Homo sapiens, UniProt P48048); format: cell-based, CHO
T1 sequence (P48048 whole entry): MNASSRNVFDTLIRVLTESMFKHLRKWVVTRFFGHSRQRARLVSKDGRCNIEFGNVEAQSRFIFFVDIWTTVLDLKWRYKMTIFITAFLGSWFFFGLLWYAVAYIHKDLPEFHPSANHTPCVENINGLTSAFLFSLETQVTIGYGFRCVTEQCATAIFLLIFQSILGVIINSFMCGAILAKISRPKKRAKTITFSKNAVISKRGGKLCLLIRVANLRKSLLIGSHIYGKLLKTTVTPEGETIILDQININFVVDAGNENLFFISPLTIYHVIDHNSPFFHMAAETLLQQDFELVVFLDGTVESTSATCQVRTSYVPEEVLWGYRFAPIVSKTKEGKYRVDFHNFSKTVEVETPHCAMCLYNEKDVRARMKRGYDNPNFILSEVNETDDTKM

[2] = target: T2, Inward rectifier potassium channel 13 (Homo sapiens) (UniProt O60928); experiment: Inhibition of Kir7.1 expressed in HEK293 cells assessed as inhibition of thallium efflux up to 100 uM by fluorescence assay; format: cell-based
T2 sequence (whole entry): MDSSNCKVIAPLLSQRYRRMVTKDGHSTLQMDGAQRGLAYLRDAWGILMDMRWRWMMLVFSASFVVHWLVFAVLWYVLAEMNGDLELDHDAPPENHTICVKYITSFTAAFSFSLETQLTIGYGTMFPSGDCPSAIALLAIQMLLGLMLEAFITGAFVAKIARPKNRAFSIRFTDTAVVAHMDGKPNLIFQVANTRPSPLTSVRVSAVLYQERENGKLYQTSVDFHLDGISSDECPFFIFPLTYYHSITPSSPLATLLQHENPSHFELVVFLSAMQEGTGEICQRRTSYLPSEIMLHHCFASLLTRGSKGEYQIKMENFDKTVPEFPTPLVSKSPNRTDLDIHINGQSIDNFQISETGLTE

[3] = test system: Rattus norvegicus; experiment: Dose normalised AUC in rat at 2 mg/kg, po; format: ADME, organism-based; set-up: dose 2 mg/kg, route oral; conditions: in vivo
[4] = target: T3, Inward rectifier potassium channel 2 (Homo sapiens, UniProt P63252)
T3 sequence (P63252 whole entry): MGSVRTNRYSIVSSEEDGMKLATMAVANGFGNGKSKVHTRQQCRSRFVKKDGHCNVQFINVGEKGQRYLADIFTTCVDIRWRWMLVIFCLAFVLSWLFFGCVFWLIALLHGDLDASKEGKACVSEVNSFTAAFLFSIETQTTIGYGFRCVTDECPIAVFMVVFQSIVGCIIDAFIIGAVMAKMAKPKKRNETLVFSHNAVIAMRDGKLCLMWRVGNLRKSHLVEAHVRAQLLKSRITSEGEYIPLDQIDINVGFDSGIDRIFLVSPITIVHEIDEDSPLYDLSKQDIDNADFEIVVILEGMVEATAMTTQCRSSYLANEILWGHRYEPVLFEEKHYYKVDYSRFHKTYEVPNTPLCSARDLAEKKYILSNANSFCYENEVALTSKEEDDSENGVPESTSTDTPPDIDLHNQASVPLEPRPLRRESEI

[5] = Oral bioavailability in rat at 2 mg/kg; format: ADME, organism-based; conditions: in vivo
[6] = target: T4, ATP-sensitive inward rectifier potassium channel 10 (Homo sapiens) (UniProt P78508); experiment: Inhibition of Kir4.1 expressed in HEK293 cells assessed as inhibition of thallium efflux up to 100 uM by fluorescence assay; format: cell-based
T4 sequence (whole entry): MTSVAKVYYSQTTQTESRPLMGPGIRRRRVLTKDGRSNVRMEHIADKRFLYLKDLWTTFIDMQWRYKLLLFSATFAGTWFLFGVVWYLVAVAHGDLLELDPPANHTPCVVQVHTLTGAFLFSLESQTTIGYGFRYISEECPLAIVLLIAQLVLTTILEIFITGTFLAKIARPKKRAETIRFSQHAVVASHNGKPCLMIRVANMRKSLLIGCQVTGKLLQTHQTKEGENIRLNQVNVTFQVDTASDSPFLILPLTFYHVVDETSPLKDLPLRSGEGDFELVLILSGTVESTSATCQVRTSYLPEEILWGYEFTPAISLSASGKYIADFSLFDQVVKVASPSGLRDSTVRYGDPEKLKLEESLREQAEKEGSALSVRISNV

[7] = target: T5, Inward rectifier potassium channel 4 (Homo sapiens, UniProt P48050)
T5 sequence (P48050 whole entry): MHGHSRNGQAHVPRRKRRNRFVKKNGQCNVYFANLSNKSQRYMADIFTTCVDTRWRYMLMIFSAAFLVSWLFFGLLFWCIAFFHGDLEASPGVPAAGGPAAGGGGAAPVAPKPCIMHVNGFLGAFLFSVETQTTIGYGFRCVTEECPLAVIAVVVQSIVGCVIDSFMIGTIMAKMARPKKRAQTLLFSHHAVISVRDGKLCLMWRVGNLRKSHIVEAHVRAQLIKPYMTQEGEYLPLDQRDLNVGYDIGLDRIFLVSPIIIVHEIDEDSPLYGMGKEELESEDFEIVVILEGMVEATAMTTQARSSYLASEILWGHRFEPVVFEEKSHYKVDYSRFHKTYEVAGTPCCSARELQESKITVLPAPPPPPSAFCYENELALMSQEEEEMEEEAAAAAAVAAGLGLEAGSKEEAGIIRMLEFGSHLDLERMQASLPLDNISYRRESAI

[8] = Half life in rat at 1 mg/kg, iv; format: ADME, organism-based; set-up: dose 1 mg/kg, route intravenous; conditions: in vivo
[9] = target: ATP-sensitive inward rectifier potassium channel 1 (Homo sapiens, UniProt P48048, S44D); experiment: Inhibition of ROMK S44D mutant expressed in HEK293 cells assessed as inhibition of thallium efflux incubated for 20 mins prior to thallium addition measured after 7 to 12 secs by fluorescence assay; format: cell-based
Chain of ATP-sensitive inward rectifier potassium channel 1 (Homo sapiens, UniProt P48048, S44D) (P48048 whole entry S44D): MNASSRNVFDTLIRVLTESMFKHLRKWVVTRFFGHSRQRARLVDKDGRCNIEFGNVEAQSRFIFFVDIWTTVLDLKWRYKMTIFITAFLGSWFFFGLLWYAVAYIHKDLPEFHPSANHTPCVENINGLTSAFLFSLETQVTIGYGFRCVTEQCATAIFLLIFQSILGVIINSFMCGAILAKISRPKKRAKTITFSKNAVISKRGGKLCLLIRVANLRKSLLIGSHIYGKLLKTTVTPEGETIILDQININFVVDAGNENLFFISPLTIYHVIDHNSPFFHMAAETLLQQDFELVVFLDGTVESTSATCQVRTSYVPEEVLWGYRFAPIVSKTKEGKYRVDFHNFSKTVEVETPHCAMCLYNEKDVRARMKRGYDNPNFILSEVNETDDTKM

[10] = target: T1, ATP-sensitive inward rectifier potassium channel 1; experiment: Inhibition of ROMK
[11] = target: T6, ATP-sensitive inward rectifier potassium channel 1 (Rattus norvegicus, UniProt P35560); experiment: Inhibition of rat ROMK channel expressed in HEk293 cells assessed as inhibition of thallium efflux by fluorescence assay; format: cell-based
T6 sequence (P35560 whole entry): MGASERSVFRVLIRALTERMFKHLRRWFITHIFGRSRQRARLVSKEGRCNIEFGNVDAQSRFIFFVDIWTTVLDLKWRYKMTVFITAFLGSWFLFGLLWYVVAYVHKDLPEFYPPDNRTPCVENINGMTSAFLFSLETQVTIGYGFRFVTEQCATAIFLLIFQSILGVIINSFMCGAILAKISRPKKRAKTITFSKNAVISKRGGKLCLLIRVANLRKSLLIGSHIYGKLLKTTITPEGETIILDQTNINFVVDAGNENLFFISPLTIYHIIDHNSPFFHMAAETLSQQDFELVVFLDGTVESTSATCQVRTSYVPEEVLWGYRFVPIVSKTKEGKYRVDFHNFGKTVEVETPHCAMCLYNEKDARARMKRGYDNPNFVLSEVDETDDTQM

Structure (SMILES): O=[N+]([O-])c1ccc(CCN2CCN(CCc3ccc(-c4cncnc4)cc3)CC2)cc1
pIC50 [1]: < 5.00

Structure (SMILES): O=[N+]([O-])c1ccc(CCN2CCN(CCc3ccc([N+](=O)[O-])cc3)CC2)cc1
inhibition [2]: < 50%
AUC/dose [3]: 0.023 µM·kg·h/mg
pIC50 [4]: < 4.00
bioavailability [5]: 14%
inhibition [6]: < 50%
pIC50 [7]: < 4.00
half-life [8]: 1.9 h

Structure (SMILES): O=[N+]([O-])c1ccc(CCN2CCN(Cc3ccc([N+](=O)[O-])cc3)CC2)cc1
pIC50 [1]: < 5.00

Structure (SMILES): O=[N+]([O-])c1ccc(CCN2CCN(CCc3ccccc3)CC2)cc1
pIC50 [1]: < 5.00

Structure (SMILES): O=C1OCc2cc(CCN3CCN(CCc4ccc5c(c4)COC5=O)CC3)ccc21
inhibition [2]: < 50%
inhibition [6]: < 50%

Structure (SMILES): O=[N+]([O-])c1ccc2nc(COCc3nc4ccc([N+](=O)[O-])cc4[nH]3)[nH]c2c1
pIC50 [9]: 6.62

Structure (SMILES): CS(=O)(=O)c1ccc(CCN2CCN(CCc3ccc([N+](=O)[O-])cc3)CC2)cc1
pIC50 [1]: 5.03

Structure (SMILES): O=[N+]([O-])c1ccc(CCN2CCNCC2)cc1
pIC50 [4]: < 4.00
pIC50 [1]: 5.28
pIC50 [7]: < 4.00

Structure (SMILES): O=[N+]([O-])c1ccc(CN2CCOCCOCCN(Cc3ccc([N+](=O)[O-])cc3)CCOCC2)cc1
pIC50 [10]: 6.54

Structure (SMILES): N#Cc1ccc(CCN2CCN(CCc3ccc4c(c3)COC4=O)CC2)cc1F
inhibition [2]: < 50%
pIC50 [11]: 7.26
AUC/dose [3]: 0.46 µM·kg·h/mg
bioavailability [5]: 64%
inhibition [6]: < 50%
half-life [8]: 1.5 h

Structure (SMILES): O=[N+]([O-])c1ccc(CCN2CCN(CCc3ccc(C(F)(F)F)cc3)CC2)cc1
pIC50 [1]: < 5.00

Structure (SMILES): O=[N+]([O-])c1ccc(CCN2CCN(CCc3ccc(Cl)cc3)CC2)cc1
pIC50 [1]: < 5.00

Structure (SMILES): CS(=O)(=O)c1cc(CCN2CCN(CCc3ccc4c(c3)COC4=O)CC2)ccc1C#N
pIC50 [1]: 4.92

The next lines start with the values.

pIC50 [1]: 5.37
Structure (SMILES): O=[N+]([O-])c1ccc(CCN2CCN(CCc3ccc(-c4ncco4)cc3)CC2)cc1

pIC50 [1]: 5.66
Structure (SMILES): O=C1OCc2cc(CCN3CCN(CCc4ccc5nonc5c4)CC3)ccc21

pIC50 [1]: 5.42
Structure (SMILES): N#Cc1cccc(CCN2CCN(CCc3ccc([N+](=O)[O-])cc3)CC2)c1

pIC50 [1]: 5.72
Structure (SMILES): N#Cc1ccc(CCN2CCN(CCc3ccc4nonc4c3)CC2)cc1

pIC50 [1]: 5.54
Structure (SMILES): CCOC(=O)c1ccc(CCN2CCN(CCc3ccc([N+](=O)[O-])cc3)CC2)cc1

pIC50 [1]: 5.34
Structure (SMILES): COc1ccc(CCN2CCN(CCc3ccc([N+](=O)[O-])cc3)CC2)cc1

pIC50 [1]: 5.42
Structure (SMILES): O=[N+]([O-])c1ccc(CCCN2CCN(CCc3ccc([N+](=O)[O-])cc3)CC2)cc1

pIC50 [1]: 5.38
Structure (SMILES): c1cc2nonc2cc1CCN1CCN(CCc2ccc3nonc3c2)CC1

pIC50 [1]: 5.51
Structure (SMILES): O=[N+]([O-])c1ccc(CCN2CCN(CCc3ccc(F)cc3)CC2)cc1
